We go through 20 compounds from patent publication US20020165221A1, “Mediators of hedgehog signaling pathways, compositions and uses related thereto” (priority 2000, published 2002).

Each structure is given as a SMILES string.

One experiment has as its system Hedgehog pathway. Put plainly: Gli-Luc assay (Hedgehog-responsive Luciferase reporter), 10T1/2(s12) cells with OCT-SHH. Type of experiment: cell-based. To be noted: OCT-SHH 0.3 μg/ml. The protocol:
Compounds to be tested are dissolved in DMSO to a concentration of 10 MM, and stored at −20° C. To activate the Hedgehog pathway in the assay cells, an octylated (lipid-modified) form of the N-terminal fragment of the Sonic Hedgehog protein (OCT-SHH) is used. This N-terminal SHH fragment is produced bacterially.
Compounds may be tested in the “Gli-Luc” assay below, using the cell line 10T(s12), wherein the cells contain a Hedgehog-responsive reporter construct utilizing Luciferase as the reporter gene. In this way, Hedgehog pathway signaling activity can be measured via the Gli-Luc response.
10t1/2(s12) cells are plated in a 96-well micro-titer plate (MTP) at 20,000 cells/well in full medium [DMEM with 10% FBS]. Then plates are placed in the incubator for incubation overnight (O/N), at 37° C. and 5% CO2. After 24 h, the medium is replaced with Luciferase-assay medium (DMEM with 0.5% FBS). Compounds are thawed and diluted in assay medium at 3:1000 (about 300-fold) resulting in a starting concentration of about 30 μM.
Subsequently, 150 μl of each 30 μM sample is added to the first wells (in triplicate). The MTP samples are then diluted at 3-fold dilutions to a total of seven wells, ultimately resulting in a regiment of seven dilutions in triplicate, for each compound. Next, the protein ligand OCT-SHH is diluted in Luciferase-assay medium and added to each well at a final concentration of 0.3 μg/ml. Plates are then returned to the incubator for further incubation O/N, at 37° C. and 5% CO2. After about 24 h, plates are removed from the incubator and the medium is aspirated/discarded. Wells are washed once with assay buffer [PBS +1 mM Mg^2+and 1 mM Ca^2+]. Then 50 μl of assay buffer is added to each well. The Luciferase assay reagent is prepared as described by the vendor (LucLite kit from Packard), and 50 μl is added to each well. Plates are incubated at room temperature (RT) for about 30 minutes after which the signals are read, again at RT, on a Topcount (Packard).
For `COc1cccc(CN(C(=O)CC(C)(C)C)C2CC(C(=O)N3CCNCC3)N(CC3CCCCC3)C2)c1` (stereo not shown) [T], the concentration for half-maximal inhibition (IC50) was less than 1000 nM.
Turning to `CC(C)CC(=O)N(Cc1cccc(SC(F)(F)F)c1)C1CC(C(=O)N2CCNCC2)N(Cc2ccc3c(c2)OCO3)C1` (stereo not shown) [X″], the IC50 is less than 10000 nM.
Compound `NCCNC(=O)C1CC(N(CCc2ccccc2)C(=O)C2CCCCC2)CN1CC1CCCCC1` (stereo not shown) [B′] registered a concentration for half-maximal inhibition (IC50) of less than 10000 nM.
`COc1cccc(CN(C(=O)CC(C)C)C2CC(C(=O)N3CCNCC3)N(Cc3ccc(C)s3)C2)c1` (stereo not shown) [X′] had a concentration for half-maximal inhibition (IC50) of less than 100 nM.
In turn, `COc1cccc(CN(C(=O)C2CC2)C2CC(C(=O)N3CCNCC3)N(CC(C)C)C2)c1` (stereo not shown) [A′] returned a half-inhibitory concentration (IC50) of less than 10000 nM.
As to `Cc1ccc(CN2CC(N(Cc3cccs3)C(=O)C3CC3)CC2C(=O)N2CCNCC2)s1` (stereo not shown) [U], the half-maximal inhibitory concentration (IC50) is less than 1000 nM.
With `COc1cccc(CN(C(=O)NC(C)(C)C)[C@H]2C[C@@H](C(=O)N3CCNCC3)N(Cc3ccc4c(c3)OCO4)C2)c1` [I″], the IC50 is less than 100 nM.
`CCOc1cc(CN2CC(N(Cc3cccc(OC)c3)C(=O)CC(C)(C)C)CC2C(=O)N2CCNCC2)ccc1OC` (stereo not shown) [K′] showed an IC50 of less than 10000 nM.
Regarding `COc1cccc(CN(C(=O)CC(C)(C)C)C2CC(C(=O)N3CCNCC3)N(Cc3ccc(-c4cc(C(F)(F)F)n(C)n4)s3)C2)c1` (stereo not shown) [E″], the IC50 was less than 10000 nM.
Compound `COc1cccc(CN(C(=O)CC(C)(C)C)C2CC(C(=O)N3CCNCC3)N(Cc3ccc4c(c3)OCO4)C2)c1` (stereo not shown) [O′] registered an IC50 of less than 100 nM.
The compound `COc1cccc(CN(C(=O)CC(C)(C)C)[C@H]2C[C@@H](C(=O)N(C)C3CCNC3)N(Cc3ccc4c(c3)OCO4)C2)c1` (stereo partly shown) [D′″] registered an IC50 of less than 10000 nM.
Still for that read-out and setting: under `COc1cccc(CN(C(=O)CC(C)(C)C)C2CC(C(=O)N3CCNCC3)N(Cc3cc4ccsc4s3)C2)c1` (stereo not shown) [Y′] stands less than 1000 nM.
Same read-out and setting: under `CC(C)CC(=O)N(Cc1cccc(O)c1)C1CC(C(=O)N2CCNCC2)N(Cc2ccc3c(c2)OCO3)C1` (stereo not shown) [T″] stands less than 1000 nM; under `Cc1ccc(CN2CC(N(Cc3cccs3)C(=O)c3cccs3)CC2C(=O)N2CCNCC2)s1` (stereo not shown) [D′], less than 10000 nM; under `CC(C)(C)CC(=O)N(Cc1ccccc1)C1CC(C(=O)NCCN)N(CC2CCCCC2)C1` (stereo not shown) [Y], less than 10000 nM.
On to `CCN1CCC(N(CC)C(=O)[C@@H]2C[C@H](N(Cc3cccc(OC)c3)C(=O)CC(C)(C)C)CN2Cc2ccc3c(c2)OCO3)C1` (stereo partly shown) [E′″], for which the concentration for half-maximal inhibition (IC50) is less than 10000 nM.
On to `COc1cccc(CN(C(=O)CC(C)(C)C)C2CC(C(=O)N3CCNCC3)N(Cc3ccc4c(c3)OCO4)C2)c1` (stereo not shown) [N], for which the IC50 is less than 1000 nM.
Still for that read-out and setting: under `COc1cccc(CN(C(=O)CC2CCCC2)C2CC(C(=O)N3CCNCC3)N(Cc3ccc4c(c3)OCO4)C2)c1` (stereo not shown) [K″] stands less than 1000 nM; under `CCc1ccc(CN2CC(N(Cc3cccc(OC)c3)C(=O)CC(C)(C)C)CC2C(=O)N2CCNCC2)s1` (stereo not shown) [A″], less than 1000 nM.

The subject of the next experiment is Ptc-null cells (gli-1 mRNA, Patched pathway). Put plainly: Ptc-null assay: gli-1 mRNA by RT-PCR and quantitative real-time PCR. It is filed as cell-based, mouse. To be noted: 3 days, 5 μM jervine. The protocol:
Ptc-null cells were cultured for 3 days in the presence of vehicle; jervine, a known Patched pathway antagonist (i) used here as a positive control; or 1 μM of compound D. Total ribonucleic acid (RNA) was isolated from the cells and used for reverse transcriptase-polymerase chain reaction (RT-PCR). […] The gli-1 and actin mRNA samples were then loaded on 1.5% agarose gel and were detected by staining with ethidium bromide. The same samples were analyzed by the quantitative real-time polymerase chain reaction method to quantify the levels of gli-1 MRNA.
As for `CC1=C2C(=O)[C@H]3[C@@H](CC=C4C[C@@H](O)CC[C@@]43C)[C@@H]2CC[C@]12O[C@@H]1C[C@H](C)CN[C@H]1[C@H]2C` [jervine, reference compound], the “gli-1 mRNA levels (quantitative real-time PCR)” value was “downregulated”.

Still in this experiment, the particulars now being: 3 days, 5 μM jervine, vs vehicle.
For the compound `CC1=C2C(=O)[C@H]3[C@@H](CC=C4C[C@@H](O)CC[C@@]43C)[C@@H]2CC[C@]12O[C@@H]1C[C@H](C)CN[C@H]1[C@H]2C` [jervine, reference compound], the “expression of gli-1 mRNA (RT-PCR, agarose gel)” value is “significantly decreased”.

The subject of a further experiment is Patched pathway / ultraviolet radiation-induced BCC tumors. The experiment is described as follows: Adult BCC mouse skin punch assay (UV-irradiated Ptc heterozygous transgenic mice). It is filed as cell-based. The conditions noted are these: jervine positive control, 6 days, vs vehicle. The protocol: Ptc heterozygous transgenic mice were irradiated 3 times weekly for 6 months, during which time many small, and often microscopic, BCC tumors developed. Four-mm diameter skin punch explants, presumably containing BCC structures, were cultured for 6 days in the presence of vehicle, the positive control […]), or 5 μM D. At the end of the experiment, the explants were analyzed by X-gal staining to detect the level of Patched pathway activity, by histology to determine the effect of treatment on the morphology of ultraviolet radiation-induced BCCs, and by quantifying the level of gli-1 mRNA expression to characterize the extent of pathway inhibition.
For `CC1=C2C(=O)[C@H]3[C@@H](CC=C4C[C@@H](O)CC[C@@]43C)[C@@H]2CC[C@]12O[C@@H]1C[C@H](C)CN[C@H]1[C@H]2C` [jervine, reference compound], the “number and size of BCC structures (X-gal staining)” value was “greatly decreased”.
